Experimental findings from US11472846B2, “Compositions and methods for treating diseases by inhibiting exosome release” (priority 2016, dated 2022) are described below.

Common to all, as to format: cell-based, human
Test [1] has as its system MCF-7 cells. The test can be described thus: Complement-mediated cell cytotoxicity assay (trypan blue), MCF-7. The note with it: for cell death under complement-positive conditions: 280 nM PEG-SMRwt-Clu or 560 nM SMRwt-CPP 60 min, then anti-CXCR4 antibody and NHS 60 min; for cell death under complement-negative conditions: 280 nM PEG-SMRwt-Clu or 560 nM SMRwt-CPP, 60 min. The protocol: (§1) 7-9. Complement-mediated cell cytotoxicity assay. Complement-mediated cell cytotoxicity assays were performed as previously described (Reiter et al., Mol Immunol. (1992) 29(6): p. 771-81). Briefly, MCF-7, MDA-MB-231 and K562 cells were either mock-transfected or transfected with mortalin siRNA. Cells were incubated with 1 μg/ml of anti-CXCR4 antibody for 30 min at 4° C., followed by treatment with PEG-SMRwt-Clu peptide or PEG-SMRmut-Clu peptide or SMRwt-CPP peptide or SMRmut-CPP peptide alone, or treated with SMR peptide combined with complement from normal human serum (NHS) or heat-inactivated normal human serum (NIS) for 60 min at 37° C. Percentage of cells lysed were determined by a trypan blue exclusion assay using the TC10™ Automated Cell Counter (Bio-Rad, Richmond Calif.). (FIG. 14, FIG. 15, Panel D).

Test [2] relates to exosomes from MCF-7 cells. The experiment in a line: Western blot of exosomal proteins (Alix, vimentin, mortalin), MCF-7. To be noted: 48 hr treatment, vs negative controls. The protocol: 7-7. Protein analysis by Western blotting. Exosomes were isolated from cell culture supernatants as described above. Protein concentrations were determined by measuring absorbance at 280 nm (Nanodrop 2000). Cultured cells were treated with PEG-SMR-Clu, SMR-CPP peptides, MKT-077, Omeprazole or DMA at 37° C. for 48 hr. To evaluate mortalin, vimentin and exosome expression, Western blot analysis was performed using anti-mortalin (Grp-75), anti-Vimentin and anti-Alix antibodies, respectively (FIG. 12).
Exosomes and cell lysates were prepared by incubating 5-10 min at 95° C. in sample buffer. The lysates were subjected to SDS-PAGE under reducing conditions (150 mM DTT) in 4-20% Criterion™ TGX™ precast gels (BioRad, Hercules, Calif.) and then transferred onto a nitrocellulose membrane (Bio-Rad, Hercules, Calif.). Nitrocellulose membranes were blocked with 5% skim milk (MedSupply, Atlanta, Ga.) in TBS containing 0.05% Tween 20 (TBST) for 1 h at room temperature. The membranes were treated with anti-mortalin (Grp-75) mAb or anti-α-tubulin mAb for cell lysates (FIG. 15, Panels A and B) or with anti-Alix and anti-vimentin or anti-mortalin for exosomes (FIG. 12), followed by peroxidase-conjugated goat anti-mouse IgG. Bands were developed with an ECL chemiluminescent substrate (Santa Cruz Biotechnology, Santa Cruz, Calif.) and exposed to an ImageQuant LAS 4000 imaging system (GE Healthcare, Piscataway, N.J. 08854).

Test [3] has as its system MDA-MB-231 breast cancer cells. The experiment in a line: Exosome release by acetylcholinesterase (AchE) assay, MDA-MB-231. To be noted: for average AChE concentration day 1 to 5: MDA-MB-231 cells, five-day treatment. As to the method: 1-6. Exosome isolation and purification. Exosomes were isolated from breast cancer cells by differential centrifugation as previously described (Ali SA. et al., 2010). Untreated tumor cells were used as a control. Briefly, the above treated and untreated cell culture supernatants were centrifuged at 400×g for 10 minutes. The supernatants were transferred to a clear tube and centrifuged at 10,000×g for 30 minutes. The supernatants from the second spin were ultracentrifuged at 200,000×g for 2 hours to pellet exosomes. Finally, the exosome pellets were re-suspended with PBS and stored at 4° C. until used for analysis.
1-7. Exosome characterization by acetylcholinesterase (AchE) assay. Purified exosomes were quantitated by measurement of AchE as described (Ellman et al., 1961). Briefly, a 100 mM dithibionitrobenzoic (DTNB) solution was prepared for use as a stock color indicator, and a 28.9 mg/mL acetylthiocholine iodide in PBS solution was prepared as a stock substrate. The stock substrate stock can be stored at −20° C. up to one month, while the color indicator can be stored at 4° C. for two weeks. A working solution was prepared by mixing 10 mL of PBS with 200 μL of Substrate and 500 μl of DTNB. 50 μL of each exosome sample was transferred to 96 well microtitre plates, and a standard curve was prepared using AchE from 0.98 mU/mL to 2000 mU/mL. After 50 μL of standards were added into separate wells, 200 μL of the working solution was added to all wells. After 20 min incubation, AchE activity was measured at 450 nm using a SpectroMax M5 fluorimeter.
7-5. Exosome isolation and purification. Exosomes were isolated from breast cancer cells and leukemia cells using the ExoQuick-TC Exosome Precipitation Kit (System Biosciencences [SBI], Mountain View Calif.) or the miRCURY Exosome Isolation Kit (EXIQON, Woburn, Mass.) according to the manufacturer's instructions. Untreated tumor cells were used as a control. Briefly, treated and untreated cell culture supernatants (10 mL) were centrifuged at 3000×g for 15 minutes. The resulting supernatants were transferred to a clear tube, 2 mL of ExoQuick-TC buffer was added, mixed and incubated overnight at 4° C. Following the incubation, the sample contents were centrifuged at 1500×g for 30 minutes, the supernatants were aspirated off, the pellets were centrifuged at 1500×g for 5 minutes and any further traces of supernatant were removed (SBI). Alternatively, treated and untreated cell culture supernatants were centrifuged at 10,000×g for 5 minutes to remove cell debris, supernatants (10 ml) were transferred into new tubes, and 4 mL of precipitation buffer (EXIQON) was added, and the contents were mixed and incubated at 4° C. overnight. Following the incubation, the sample contents were centrifuged at 10,000×g for 30 minutes (EXIQON). Exosome-containing pellets were re-suspended in PBS and stored at 4° C. or −80° C.
7-6. Exosome characterization by acetylcholinesterase (AchE) assay. Purified exosomes were quantitated by measurement of AchE as previously described (Huang et al., Oncotarget, 2017. 8(7): pp. 11302-11315). Briefly, 100 mM dithibionitrobenzoic (DTNB) was prepared as a stock color indicator, and prepared a stock substrate containing 28.9 mg/mL of acetylthiocholine iodide in PBS. Substrate stock can be stored at −20° C. up to one month; the stock color indicator can be stored at 4° C. for two weeks. A working solution was prepared by mixing 10 mL of PBS with 200 μL of substrate and 500 μl of DTNB. 50 μL of each exosome sample was transferred to a 96 well microtitre plate, and a standard curve for AchE concentrations was prepared using AchE from 0.98 mU/mL to 2000 mU/mL. After 50 μL of standards were added into separate wells, 200 μL of the working solution was added to each well. After a 20 min incubation, AchE activity was measured at 450 nm using a SpectroMax M5 fluorometer (FIG. 11).

Test [4] has as its system K562 cells. The test can be described thus: Complement-mediated cell cytotoxicity assay (trypan blue), K562. The note with it: for cell death under complement-positive conditions: 280 nM PEG-SMRwt-Clu or 560 nM SMRwt-CPP 60 min, then anti-CXCR4 antibody and NHS 60 min; for cell death under complement-negative conditions: 280 nM PEG-SMRwt-Clu or 560 nM SMRwt-CPP, 60 min. As to the method:
as §1

For the sequence “NXNVGFPVAAVGFPVHPLSKHPYWSQP (SEQ ID NO: 37) [PEG-SMRwt-Clu]”, in test [1], the “cell death under complement-positive conditions” value is recorded as 26% and the “cell death under complement-negative conditions” value is recorded as 2.1%. In test [2], the “Alix expression in exosomes” value is “significantly decreased”, the “Mortalin expression in exosomes” value is reported as “significantly decreased” and the “Vimentin expression in exosomes” value is “significantly decreased”. In addition, the “AchE activity in exosomes” value in test [3] (MDA-MB-231 cells treated 48 hr, control exosomes 118.48 mU/mL) stood at 66.77 mU/mL. Moreover, the “average AChE concentration day 1 to 5” value in test [3] worked out at 42 mU/mL. Further, in test [4], the “cell death under complement-positive conditions” value is recorded as 55% and the “cell death under complement-negative conditions” value came to 4.3%.
Consider VGFPVAAVGFPVGRKKRRQRRRPPQ [SMRwt-CPP], for which, in test [1], the “cell death under complement-positive conditions” value was 29% and the “cell death under complement-negative conditions” value is given as 2.1%. Besides, in test [2], the “Alix expression in exosomes” value was “significantly decreased”, the “Mortalin expression in exosomes” value is “no significant changes” and the “Vimentin expression in exosomes” value was “significantly decreased”. The “average AChE concentration day 1 to 5” value in test [3] is 29 mU/mL. Moreover, in test [4], the “cell death under complement-positive conditions” value was 23% and the “cell death under complement-negative conditions” value turned out to be 4.3%.
